# Entries after “also recorded” stand apart in the source; their conditions may differ.
# Experiments:
# [1] = Oral allantoin administration (gavage), plasma allantoin levels in rats; type: in vivo, Sprague Dawley rats
# Experimental: Rats also received oral allantoin via gastric gavage. Rats were firmly restrained via grasping the loose skin of the neck and back to immobilize the head. While maintaining the rat in an upright position, the gavage needle (20 G×1½″) was passed through the side of the mouth and advanced into the esophagus by following the roof of the mouth and advanced further toward the stomach. After the needle was passed to the correct length, 125 mg of allantoin, dissolved in water or water, was injected. This procedure was repeated daily for five days.
# For plasma analysis of allantoin venous blood was obtained from the right ventricle (rat) and collected from repeated blood draws (African green monkey). Blood was immediately centrifuged at 10,500 rpms (this needs to be in G) for 5 minutes. Supernatant was then removed and analyzed for allantoin. […] Following a 15 minute incubation, absorbance was read on a spectrometer at 340 nm. […] Following a 10 minute incubation absorbance was once again measured at 340 nm. The final absorbance was subtracted from the absorbance following the addition of allantoinase. […]
# Rats received oral allantoin or water via gavage once daily for 5 days. […] Allantoin levels in plasma were determined utilizing the enzymatic detection assay. […]
# [2] = tested on: NOX-1 expression in the SN; assay: NOX-1 immunohistochemistry, counts of NOX-1ir cells in the SN after 6-OHDA; type: in vivo, Sprague Dawley rats
# Experimental: Rats were anesthetized prior to surgery with Equi-Thesin (0.3 ml/100 g body weight i.p.; chloral hydrate 42.5 mg/ml+sodium pentobarbital 9.72 mg/ml), their heads shaved, and then they were placed in a stereotaxic frame. Their skin was swabbed with Betadyne followed by 70% ETOH. The scalp was then opened to expose the skull. Two 1 mm holes were drilled into the skull and rats were injected in two sites in the striatum with 6-OHDA (MP Biomedicals, Solon, Ohio; 5 μg/μl 6-OHDA in 0.2% ascorbic acid, 0.9% saline solution). The coordinates for these injections were AP −1.6 mm, ML +2.4 mm, DV −4.2 mm and AP −0.2 mm, +ML 2.6 mm, DV −7.0 mm. The needle was zeroed at the skull directly above the injection site in order to target the DV coordinate. For each injection, the needle was lowered slowly to the injection site and 1 minute elapsed before injection commenced, 6-OHDA was injected at 0.5 μl/minute and at the end of the injection the needle was held in place for an additional 2 minutes prior to retraction. The wound area was cleaned with Betadine solution and the scalp was closed with surgical wound clips. This lesion paradigm results in a progressive loss of TH phenotype and frank DA cell death.
# Brains were frozen on dry ice and sectioned at a 40 μm thickness using a sliding microtome. Every sixth section through the midbrain was for incubated 30 minutes in sodium citrate 10 mM at 80 degrees Celsius. Following blocking in 10% normal goat serum, tissue was incubated in primary antisera directed against NOX-1 (Santa Cruz Biotechnology, Santa Cruz, Calif., 1:1000). Following primary incubation, sections were incubated in biotinylated secondary antisera against rabbit IgG (Vector Laboratory, Burlingame, Calif., 1:200) followed by the Vector ABC detection kit employing horseradish peroxidase. Antibody labeling was visualized by exposure to 0.5 mg/ml 3,3′ diaminobenzidine (DAB) and 0.03% H2O2 in Tris buffer. Sections were mounted on subbed slides, dehydrated to xylene and coverslipped with Cytoseal.
# Absolute counts of NOX-1ir cells was performed using a BX52 Olympus microscope interfaced with Microbrightfield stereological software and a Microfire CCD camera. Counts of NOX1-ir neurons were made at 20× and the sum of these values was adjusted according to the method of Abercrombie (Abercrombie, M., Estimation of nuclear populations from microtome sections, Anat. Rec. 94:239-247 (1946)). To assure that no cells were excluded or counted more than once, each cell was marked utilizing StereoInvestigator 7.0 (Microbrightfield Williston, Vt.). The total number of markers recorded by the software was utilized to estimate the total number of NOX-1ir cells (Fawcettt, et al., Dopaminergic neuronal survival and the effects of bFGF in explant, three dimensional and monolayer cultures of embryonic rat ventral mesencephalon, Exp. Brain Res. 106:275-82 (1995)).
# Increased NOX-1 expression is directly linked to increased oxidative stress (Vignais, P., The superoxide-generating NADPF oxidase: structural aspects and activation mechanism, Cell Mol. Life Sci. 59:1428-59 (2002)). To determine the effect of ALL on NOX-1 expression in the SN and Red Nucleus, animals received either ALL pellets (n=6) or sham implantation (n=6). Pellet implantation surgery took place 3 days prior to intrastriatal 6-OHDA infusion. Twenty-four hours post-lesion, animals were sacrificed via intracardial saline perfusion and the SN was processed for NOX-1 immunohistochemistry.
# [3] = in vivo; cited from earlier work
# [4] = s.c. ALL pellets 3 days prior to 6-OHDA, twenty-four hours post-lesion, vs untreated controls
structure (smiles),measurement,setting,value
NC(=O)NC1NC(=O)NC1=O (centres unmarked) [allantoin],plasma allantoin levels,"[1]; rat, 125 mg oral gavage once daily for 5 days, blood two hours following final dose, vs water",doubling; also recorded: significant increase
same,negative health consequences,"[1]; rats, oral allantoin once daily for 5 days",Neither the rats nor the monkeys exhibited any obvious negative health consequences
same,number of NOX-1ir cells in the SN,"[2]; s.c. ALL pellets 3 days prior to 6-OHDA, overall treatment effect",decreased
same,number of NOX-1ir cells in the 6-OHDA lesioned SN,[2]; [4],significant decrease
same,number of NOX-1ir cells in the intact SN,[2]; [4],significant decrease
same,number of NOX-1ir cells in the 6-OHDA lesioned SN,"[2]; s.c. ALL pellets 3 days prior to 6-OHDA, twenty-four hours post-lesion, vs untreated controls, listed as ALL",significantly reduced
same,NOX-1 expression induced by 6-OHDA,"[2]; s.c. allantoin pellets, SN",significantly reduced
same,antioxidant properties,[3],antioxidant properties in vivo

# — patent US20120128654A1, “Allantoin Administration for the Treatment of Neurodegenerative Disease and Neurotrauma” (UNIVERSITY OF CINCINNATI, priority 2009, published 2012)
